How the values were obtained:
[1] = test system: Human immunodeficiency virus 1; assay: Antiviral activity against HIV-1 zmb infected in human MT-4 cells after 72 hrs by MTT assay; format: functional, organism-based, MT4
[2] = Selectivity ratio of MTD for human MT-4 cells to EC50 for HIV-1 zmb infected in human MT-4 cells; format: ADME, cell-based, MT4
[3] = microbe, parasite or virus in culture; format: functional, Influenza A virus (A/ts1/1/A/FPV/Rostock/1934(H7N1)); conditions: Influenza A virus, 36 h
[4] = in vitro; conditions: chicken, primary chicken embryo cells
[5] = Human immunodeficiency virus 1, zmb, MT4, 72 h, read-out: EC50

Compound	EC50 [1, 5] [µM]	selectivity ratio [2]	EC50 [3] [µM]	selectivity ratio [4]	EC50 ([1]; mt4)
C=C(C)[C@@H]1CC[C@]2(C(=O)OC)CC[C@]3(C)[C@H](CC[C@@H]4[C@@]5(C)C(C#N)=CC(C)(C)[C@@H]5CC[C@]43C)[C@@H]12	50.5	3.2	–	–	–
C=C(C)[C@@H]1CC[C@]2(C(=O)OC)CC[C@]3(C)[C@H](CC[C@@H]4[C@@]5(C)C/C(=N\O)C(=O)C(C)(C)[C@@H]5CC[C@]43C)[C@@H]12	–	–	98	4.1	–
COC(=O)[C@@]1(C)CCC2(C)CC[C@]3(C)C(=CC(=O)[C@@H]4[C@@](C)(CC#N)[C@H](C(C)(C)C=O)CC[C@]43C)[C@@H]2C1 (single isomer, unassigned)	–	–	53.5	15.1	–
CC(C)(/C=N/O)[C@@H]1CC[C@]2(C)[C@H](CC[C@@H]3[C@H]4[C@H]5OC[C@@]4(CCC5(C)C)CC[C@]32C)[C@@]1(C)CC#N	–	–	58.7	7.2	–
C=C(C)[C@@H]1CC[C@]2(C(=O)O)CC[C@]3(C)[C@H](CC[C@@H]4[C@@](C)(CC#N)[C@H](C(C)(C)C=O)CC[C@]43C)[C@@H]12	–	–	7.7	3.5	–
COC(=O)[C@@]1(C)CCC2(C)CC[C@]3(C)C(=CC(=O)[C@@H]4[C@@]5(C)C/C(=N\O)C(=O)C(C)(C)[C@@H]5CC[C@]43C)[C@@H]2C1 (single isomer, unassigned)	–	–	> 100	–	–
C/N=C/C(C)(C)[C@@H]1CC[C@]2(C)[C@H](C(=O)C=C3[C@@H]4C[C@@](C)(C(=O)OC)CC[C@]4(C)CC[C@]32C)[C@@]1(C)CC#N	–	–	51.9	15.1	–
CC1(C)C=C(C#N)[C@]2(C)[C@H]3CC[C@@H]4[C@H]5[C@H]6OC[C@@]5(CCC6(C)C)CC[C@@]4(C)[C@]3(C)CC[C@@H]12	–	–	–	–	Not Active
C=C(C)[C@@H]1CC[C@]2(C(=O)OC)CC[C@]3(C)[C@H](CC[C@@H]4[C@@](C)(CC#N)[C@H](C(C)(C)/C=N/O)CC[C@]43C)[C@@H]12	–	–	22.7	35.4	Not Active
C=C(C)[C@@H]1CC[C@]2(C(=O)O)CC[C@]3(C)[C@H](CC[C@@H]4[C@@]5(C)C/C(=N\O)[C@H](O)C(C)(C)[C@@H]5CC[C@]43C)[C@@H]12	–	–	31.5	6.8	–
COC(=O)[C@@]1(C)CCC2(C)CC[C@]3(C)C(=CC(=O)[C@@H]4[C@@]5(C)C/C(=N\O)[C@H](O)C(C)(C)[C@@H]5CC[C@]43C)[C@@H]2C1 (single isomer, unassigned)	–	–	57.2	3.4	–
C=C(C)[C@@H]1CC[C@]2(C(=O)OC)CC[C@]3(C)[C@H](CC[C@@H]4[C@@]5(C)C(C#N)=C(N)C(C)(C)[C@@H]5CC[C@]43C)[C@@H]12	–	–	–	–	Not Active
C=C(C)[C@@H]1CC[C@]2(C(=O)O)CC[C@]3(C)[C@H](CC[C@@H]4[C@@]5(C)C/C(=N\O)C(=O)C(C)(C)[C@@H]5CC[C@]43C)[C@@H]12	0.06	51.5	12.9	64.1	–
C=C(C)[C@@H]1CC[C@]2(C(=O)OC)CC[C@]3(C)[C@H](CC[C@@H]4[C@@]5(C)C/C(=N\O)[C@H](O)C(C)(C)[C@@H]5CC[C@]43C)[C@@H]12	–	–	> 100	–	–
C=C(C)[C@@H]1CC[C@]2(C(=O)O)CC[C@]3(C)[C@H](CC[C@@H]4[C@@](C)(CC#N)[C@H](C(C)(C)/C=N/O)CC[C@]43C)[C@@H]12	0.06	50	18.2	5.7	–
CC1(C)CC[C@]23CC[C@]4(C)[C@H](CC[C@@H]5[C@@]6(C)C/C(=N\O)C(=O)C(C)(C)[C@@H]6CC[C@]54C)[C@H]2[C@H]1OC3	–	–	> 100	–	–
CC1(C)CC[C@]23CC[C@]4(C)[C@H](CC[C@@H]5[C@@]6(C)C/C(=N\O)[C@H](O)C(C)(C)[C@@H]6CC[C@]54C)[C@H]2[C@H]1OC3	–	–	> 100	–	–
CC1(C)CC[C@]23CC[C@]4(C)[C@H](CC[C@@H]5[C@@]6(C)C(C#N)=C(N)C(C)(C)[C@@H]6CC[C@]54C)[C@H]2[C@H]1OC3	–	–	–	–	Not Active
